Test results published in patent US20220372162A1, “PCT/US2020/066088” (TeneoFour, Inc., priority 2019, published 2022).
“Also recorded” adds a separate entry of the source.

Tests used:
Daudi cells [1] = assay: NAD+ assay in Daudi cells; format: cell-based; conditions: presence of NMN compared to absence of NMN, FIG. 19
Method: (§1) Studies were performed to assess whether blocking the ecto-NMNase activity of CD38 with the subject binding compounds causes an increase in the NMN-mediated increase in NAD+ within the CD38 expressing B cell lines Ramos and Daudi. The assay is based on the enzymatic cycling reaction in which NAD+ is reduced to NADH. NAD+ reacts with a colorimetric probe that produces a colored product. The intensity of the color is proportional to the NAD+ and NADH within a sample. Oxidized form is selectively destroyed by heating in basic solution, while reduced form is not stable in acidic solution.
(§2) Daudi or Ramos cells (2×10^5) were treated with antibody at a 5 nM concentration for 14 h. NAD+ was measured using an NAD+/NADH cycling assay kit (Cell Biolabs #MET-5014). Briefly, cell lysates were prepared in extraction buffer by homogenization, centrifugation at 4° C. at 14,000 rpm for 5 minutes, and deproteination through a 10 kDa spin filter. […] After 3 h, color development was read at 450 nm.
(§3) Daudi or Ramos cells (2×10^5) were treated with antibody at a 5 nM concentration in the presence or absence of 400 nM NMN for 14 h. NAD+ was measured using the NAD+/NADH cycling assay kit (Cell Biolabs #MET-5014). […] After 3 h, color development was read at 450 nm.

Daudi cells [2] = assay: Direct apoptosis / direct cytotoxicity of Daudi cells; format: cell-based
Method: (§4) Induction of direct apoptosis was assessed by Annexin-V and 7-AAD staining using flow cytometry. Annexin-V is commonly used to detect apoptotic cells by its ability to bind to phosphatidylserine, a marker of apoptosis when it is present on the outer leaflet of the plasma membrane. 7-AAD binds to double stranded DNA that is taken up by dying or dead cells with compromised membranes. The CD38 positive cell lines used in this study were Daudi and Ramos cells.
(§5) A quad gate was used to distinguish between early apoptotic (Annexin-V+, 7-AAD−), late apoptotic (Annexin-V+, 7-AAD+), and viable cells (Annexin-V−, 7-AAD−). Concentration of binding compound was plotted against percent viability in Graphpad Prism 8. The resulting plot was fitted to a non-linear regression to determine EC50.

Ramos cells [3] = assay: NAD+ assay in Ramos cells; format: cell-based; conditions: presence of NMN compared to absence of NMN, FIG. 19
Method: as §1, §2, §3

[4] = system: sirtuin activity in CD38 positive Ramos cells; assay: Sirtuin activity assay (SIRT-GLO) in CD38 positive Ramos cells; format: cell-based; conditions: 24 h
Description: To quantify sirtuin activity, Promega's one-step SIRT-GLO™ assay was used. The reagent formulation contains an acetylated lysine attached to aminoluciferin, along with a peptide sequence derived from p53. Upon deacetylation of the lysine by a sirtuin, the deacetylated peptide becomes a substrate for the developer reagent present in the reaction mixture. This yields free aminoluciferin that reacts with luciferase to give a luminescent signal that is stable and quantifiable.
CD38 positive Ramos cells were treated with a bispecific, bivalent three chain binding compound as depicted in FIG. 11, Panel D, or isotype control, in a 96 well plate (2×10^5 cells/well). After 24 h, the plate was centrifuged at 500 g for 5 minutes, and the cells were washed with 1×PBS followed by centrifugation. The cell pellet was resuspended in 50 μL of M-PER Mammalian Protein extraction reagent on ice. The cells were transferred to 1.5 mL tubes and homogenized for 30 seconds. The lysate was centrifuged at 14,000 rpm for 5 minutes at 4° C. The supernatant was incubated with 1:30 of anti-SIRT1 antibody (Abcam #32441) for 4 h on a rotator at 4° C. Protein A slurry (25 μL per 50 μL of lysate) was added and further incubated for 2 h at room temperature Immunoprecipitation (IP) buffer (Pierce #28379) was added (500 μL per tube) followed by centrifugation at 2500 g for 2 minutes. The wash step with IP buffer was repeated and 50 μL of IgG elution buffer (Pierce #21004) was added. After 5 minutes of incubation at room temperature, the eluate was centrifuged at 2500 g for 2 minutes. The supernatant was immediately neutralized with 1 M Tris (pH 9), 10 μL per 100 μL eluate. The eluate was used in the SIRT GLO™ assay (Promega #G6450) at a 1:1 ratio with the SIRT GLO™ reagent, per the manufacturer's instructions.
CD38 positive Ramos cells were treated with a bispecific, bivalent three chain binding compound (depicted in FIG. 11, Panel D) in combination with nicotinamide mononucleotide (NMN) at a concentration of 400 nM, or isotype control, in a 96 well plate (2×10^5 cells/well). After 24 h, the plate was centrifuged at 500 g for 5 minutes, and the cells were washed with 1×PBS followed by centrifugation. The cell pellet was resuspended in 50 μL of M-PER Mammalian Protein extraction reagent on ice. The cells were transferred to 1.5 mL tubes and homogenized for 30 seconds. The lysate was centrifuged at 14,000 rpm for 5 minutes at 4° C. The supernatant was incubated with 1:30 of anti-SIRT1 antibody (Abcam #32441) for 4 h on a rotator at 4° C. Protein A slurry (25 μL per 50 μL of lysate) was added and further incubated for 2 h at room temperature Immunoprecipitation (IP) buffer (Pierce #28379) was added (500 μL per tube) followed by centrifugation at 2500 g for 2 minutes. […]

CD4 T cells = assay: T-cell proliferation and IFNγ production in mixed lymphocyte reaction (MLR); format: cell-based
Method: Various binding compounds in accordance with embodiments of the invention were assessed for their ability to inhibit CD38 hydrolase activity without activating a mixed lymphocyte reaction (MLR). MLR occurs when MHC mismatched immune cells interact, triggering an immune response by T cell hyperproliferation and exacerbated cytokine release. […] The binding compounds were formulated at a concentration of 0.97 mg/mL in 20 mM Citrate, 100 mM NaCl, pH 6.2. Test substance was stored frozen at −80° C. until the day of use.
Analyses were performed to assess CD4 T cell proliferation and IFNγ production. The results are depicted in FIG. 20. […] The percentage of CD4 T cell proliferation is also shown in Panel C for a variety of other binding compounds.

[5] = system: CD38 negative cell lines (293-Freestyle, HL-60, K562, CHO); assay: Off target cell binding by flow cytometry (Example 10); conditions: K562 and HL-60 cells, FIG. 23
Method: On target and off target cell binding of a bispecific, bivalent three chain binding compound as depicted in FIG. 11, Panel D, was assessed. The binding compound was formulated at a concentration of 0.97 mg/mL in 20 mM Citrate, 100 mM NaCl, pH 6.2. Test substance was stored frozen at −80° C. until the day of use. Binding to CD38 positive and CD38 negative cell lines was assessed using flow cytometry. The CD38 positive cell lines used were Daudi, Ramos, and a CHO cell line transfected to stably express CD38. The CD38 negative cell lines used were 293-Freestyle, HL-60, K562, and CHO.
The average MFI of unstained wells was set as the background signal. To calculate fold over background of each experimental sample, the experimental sample MFI was divided by the average background MFI.

Ramos cells [6] = assay: Direct apoptosis of Ramos cells; format: cell-based; conditions: Annexin-V and 7-AAD staining, flow cytometry, FIG. 24
Method: as §4, §5

[7] = system: Xeno-GvHD in NOD scid gamma (NSG) mice; assay: Xeno-GvHD model, human PBMCs in NSG mice; format: in vivo
Method: Xeno-GvHD was induced using 1.5 grays of radiation to facilitate colonization of human PBMCs in NOD scid gamma (NSG) mice. […] Survival was monitored until day 50. GvHD clinical score was determined mainly based on weight loss, posture, activity and fur texture. […] In contrast, the animals treated with PBMCs+PBS or PBMCs+mCD38 lost body weight quickly and were sacrificed before day 25 because of more than 20% weight loss. The survival, body weight, and clinical score data are shown in FIGS. 30, 31 and 32, respectively.

[8] = biological target: T1, human CD38 expressed on CHO cells (Homo sapiens, UniProt P28907); assay: Cell-based CD38 hydrolase activity, UniAb mixtures, bivalent and tetravalent formats (FIGS. 7, 8, 12, 16); conditions: tetravalent UniAbs with human IgG4 Fc region, FIG. 16; read-out: IC50, inhibition of hydrolase activity of human CD38 expressed on CHO cells
T1 construct: expressed in transfected cells; host or cells: CHO cells stably expressing human CD38
Method: After incubation, ε-NAD^+ (BioLog Cat. No. N010) was added to a final concentration of 150 μM. Production of a fluorescent product was measured at 1 hour (ex 300 nm/em 410 nm) using a Spectramax i3x plate reader (Molecular Devices). Hydrolase enzyme inhibition was assessed by comparing signal from UniAb™-treated wells to the percent of total enzymatic activity observed when CD38 protein was treated with an isotype control antibody (max).

Isatuximab: antibody against CD38 in clinical trials for Multiple Myeloma; VH SEQ ID NO: 30, VL SEQ ID NO: 31 [reference compound]
intracellular NAD+ levels (in words) (Daudi cells [1]): not Daudi
direct cytotoxicity of Daudi cells (in words) (Daudi cells [2]; FIG. 10): potently kill Daudi cells
direct apoptosis of Daudi cells (in words) (Daudi cells [2]; in 24 hours, stated with the NAD+ study): causes direct apoptosis
intracellular NAD+ levels (in words) (Ramos cells [3]): subtle difference in NAD+ increase

NC(=O)c1ccc[n+]([C@@H]2O[C@H](COP(=O)([O-])O)[C@@H](O)[C@H]2O)c1 [NMN, nicotinamide mononucleotide, reference compound]
sirtuin activity, luminescence (in words) ([4]; NMN 400 nM, FIG. 28): did not result in an increase in sirtuin activity

Daratumumab: antibody specific for human CD38, approved in 2015 for Multiple Myeloma
percentage of CD4 T cell proliferation in MLR (in words) (CD4 T cells; FIG. 20, Panel A): did result in an increase
IFNγ production in MLR (in words) (CD4 T cells; compared to IgG4 istp control, FIG. 20, Panel B): caused an increase

TNB-738: bispecific, bivalent three chain anti-human CD38 molecule, FIG. 11 Panel D, comprising F11A and F12A VH sequences
intracellular NAD+ levels (in words) (Daudi cells [1]): remarkably increased the NAD+ levels
direct apoptosis of Daudi cells (in words) (Daudi cells [2]; Annexin-V and 7-AAD staining, flow cytometry, FIG. 24): did not cause direct apoptosis
off target cell binding (in words) [5]: does not bind
intracellular NAD+ levels (in words) (Ramos cells [3]): remarkably increased the NAD+ levels
sirtuin activity, luminescence (in words) ([4]; NMN 5 nM, 50 nM or 500 nM, FIG. 29): further increased in a dose-dependent manner by the presence of increasing concentrations of NMN
sirtuin activity, luminescence (in words) ([4]; NMN 400 nM, FIG. 28): further increased by the presence of NMN
sirtuin activity, luminescence (in words) ([4]; no NMN, FIG. 26): dose-dependent increase in sirtuin activity
direct apoptosis of Ramos cells (in words) (Ramos cells [6]): did not cause direct apoptosis
prevention of GvHD (in words) ([7]; clinical score based on weight loss, posture, activity and fur texture): prevention of GvHD; also recorded: able to successfully prevent GvHD
survival ([7]; day 50 after PBMC injection, treatments twice weekly until day 18): 100%

B1: CD38F12A_2GS_CD38F11A: tetravalent bispecific UniAb, FIG. 11 Panel B format, distal VH CD38F12A, GS linker, proximal VH CD38F11A, human IgG4 Fc region (antibody)
heavy: GVQLVESGGGLVQPGGSLRLSCTASGFTFSSSWMSWVRQAPGKGLEWVANIKQDGSEKDYVDSAKGRFTISRDNAKNSLYLQMNNLRAEDTAVYYCARDRRGPFFHIWGQGTLVTVSSGGGGSQVQLVESGGGVVQPGRSLRLSCAASGFTFSSYGMHWVRQAPGKEREWVAVISDDGSNKYYADSVKGRFTISRDNSKNTLYLQMNSLRVEDTAVYYCAKDRGTMRVVVYDTLDIWGQGTLVTVSS
modifications: left off: a dimerising Fc or GST
IC50 [8]: 4.5 nM
